Reference: patent US20220218700A1, “COMBINATION OF AN ?2-ADRENOCEPTOR SUBTYPE C (ALPHA-2C) ANTAGONISTS WITH A TASK1/3 CHANNEL BLOCKER FOR THE TREATMENT OF SLEEP APNEA” (Bayer Aktiengesellschaft, priority 2019, published 2022)

Test system: upper airway collapsibility
Assay: pig model of obstructive sleep apnea (OSA): collapse of the upper respiratory tract induced by negative pressure in anaesthetized, spontaneously breathing pigs
Type: in vivo, German Landrace pigs
Settings: for effect on upper airway collapsibility: all negative pressures of −50, −100 and −150 cm H2O
Excerpt: The therapeutic potential of the combination of an α2-Adrenoceptor subtype C (alpha-2C) antagonists with a TASK1/3 channel blocker according to the present invention in sleep apnea has been assessed preclinically in a pig model of obstructive sleep apnea (OSA).
Using negative pressure. it is possible to induce collapse and thus obstruction of the upper respiratory tract in anaesthetized, spontaneously breathing pigs (Wirth K. J. et al., Sleep 36(5) (2013) pp. 699-708).
German Landrace pigs are used for the model. The pigs are anaesthetized and tracheotomized. Two tracheal cannulas are inserted into the trachea, one into the rostral part and the other into the caudal part of the trachea. Using a connection piece. the rostral cannula is connected to a tube to the negative pressure device and to the distal tracheal cannula. The distal tracheal cannula is additionally connected to a tube with an open end to atmosphere via a connection piece that served for free tracheal breathing, circumventing the upper airway. By appropriate opening and clamping of those tubes breathing can be switched from nasal breathing to breathing through the caudal tracheal cannula, circumventing the upper airway. and the (isolated) upper airway can be connected to the negative pressure device, causing airflow in the inspiratory direction.
At certain points in time. the collapsibility of the upper respiratory tract is tested by having the pig breathe via the caudal cannula and applying negative pressures of −50, −100 and −150 cm water head (cm H2O) to the upper respiratory tract. This causes the upper respiratory tract to collapse, which manifests itself in an interruption of the airflow and a pressure drop in the tube system. This test is conducted prior to the administration of the test substance and at certain intervals after the administration of the test substance. An appropriately effective test substance can prevent this collapse of the respiratory tract in the inspiratory phase.

[1] = time 60 min after intranasal administration of 0.3 μg, TASK1/3 blocker alone
[2] = time 0 min (time point of i.v. bolus/start of infusion of alpha-2C antagonist)
[3] = time 10 min after i.v. bolus and start of i.v. infusion 0.13 μg/kg/h of alpha-2C antagonist, before nasal TASK1/3 blocker
[4] = time 30 min after i.v. bolus and start of i.v. infusion 0.13 μg/kg/h of alpha-2C antagonist, before nasal TASK1/3 blocker
[5] = time 60 min after i.v. bolus and start of i.v. infusion 0.13 μg/kg/h of alpha-2C antagonist, before nasal TASK1/3 blocker
[6] = time 90 min after i.v. bolus and start of i.v. infusion 0.13 μg/kg/h of alpha-2C antagonist, before nasal TASK1/3 blocker
[7] = time 120 min after i.v. bolus and start of i.v. infusion 0.13 μg/kg/h of alpha-2C antagonist, before nasal TASK1/3 blocker
[8] = time 150 min after i.v. bolus and start of i.v. infusion 0.13 μg/kg/h of alpha-2C antagonist, before nasal TASK1/3 blocker

For `COc1cccc(C(=O)N2CCN(Cc3c(-c4ccc(Cl)cc4)nc4ccccn34)CC2)n1` [(4-{[2-(4-Chlorophenyl)imidazo[1,2-a]pyridin-3-yl]methyl}piperazin-1-yl)(6-methoxypyridin-2-yl)methanone], the “effectiveness of the dose on upper airway collapsibility” value (TASK1/TASK3 channel blocker alone, 0.3 μg) was “non effective dose”, the “Percent pigs without collaps −50 cm H2O” value [1] was 0% and the “Percent pigs without collaps −100 cm H2O” value [1] was 0%. The “Percent pigs without collaps −150 cm H2O” value [1] was 0%.

With `COCc1cccnc1N1CCN(C[C@H]2COc3ccccc3O2)CC1` [(S)-1-((2,3-dihydrobenzo[b][1,4]dioxin-2-yl)methyl)-4-(3-(methoxymethyl)pyridin-2-yl)piperazine] the “effectiveness of the dose on upper airway collapsibility” value (alpha-2C antagonist alone, i.v. bolus 0.3μg/kg + i.v. infusion 0.13 μg/kg/h) was “non effective dose”, the “effect on upper airway collapsibility” value (i.v. bolus 0.3μg/kg + i.v. infusion 0.13 μg/kg/h for five hours, only at time point 30 min after bolus and start of infusion) was “inhibited upper airway collapsibility” and the “effect on upper airway collapsibility” value (i.v. bolus 0.3μg/kg + i.v. infusion 0.13 μg/kg/h, time point 120 min after bolus and start of infusion) was “upper airway collapsibility was induced”. For the same compound, the “Percent pigs without collaps −50 cm H2O” value [2] was 0%, the “Percent pigs without collaps −100 cm H2O” value [2] was 0% and the “Percent pigs without collaps −150 cm H2O” value [2] was 0%. For the same compound, the “Percent pigs without collaps −50 cm H2O” value [3] was 0%, the “Percent pigs without collaps −100 cm H2O” value [3] was 0% and the “Percent pigs without collaps −150 cm H2O” value [3] was 0%. The “Percent pigs without collaps −50 cm H2O” value [4] was 100%, the “Percent pigs without collaps −100 cm H2O” value [4] was 100% and the “Percent pigs without collaps −150 cm H2O” value [4] was 100%. For the same compound, the “Percent pigs without collaps −50 cm H2O” value [5] was 100%, the “Percent pigs without collaps −100 cm H2O” value [5] was 100% and the “Percent pigs without collaps −150 cm H2O” value [5] was 50%. For the same compound, the “Percent pigs without collaps −50 cm H2O” value [6] was 50%, the “Percent pigs without collaps −100 cm H2O” value [6] was 0% and the “Percent pigs without collaps −150 cm H2O” value [6] was 0%. For the same compound, the “Percent pigs without collaps −50 cm H2O” value [7] was 0%, the “Percent pigs without collaps −100 cm H2O” value [7] was 0% and the “Percent pigs without collaps −150 cm H2O” value [7] was 0%. The “Percent pigs without collaps −50 cm H2O” value [8] was 0%, the “Percent pigs without collaps −100 cm H2O” value [8] was 0% and the “Percent pigs without collaps −150 cm H2O” value [8] was 0%.
